The results in this text go back to patent publication US11787799B2 (priority 2015, dated 2023).

The subject of data set [1] is Enterovirus D68/US/Mo/14-18949. The experiment in a line: Antiviral assay, Enterovirus D68 strain US/Mo/14-18949 in RD cells. It counts as cell-based.
The next data set concerns Coxsackievirus B3-H3. Nature of the data set: microbe, parasite or virus in culture. The class given is cell-based. The conditions noted are these: read-out: EC50 CVB3-H3.
The subject of another data set is Echovirus 6. The experiment in a line: microbe, parasite or virus in culture. The class given is cell-based. The conditions noted are these: read-out: EC50 ECHO06.
A further data set deals with Coxsackievirus B4. Nature of the data set: microbe, parasite or virus in culture. The conditions noted are these: read-out: EC50 CVB4. It counts as cell-based.
In the next data set the test system is Echovirus 7. Nature of the data set: microbe, parasite or virus in culture. It counts as cell-based. The conditions noted are these: read-out: EC50 ECHO07.
Data set [2] deals with Enterovirus D68/US/KY/14-18953. Nature of the data set: Antiviral assay, Enterovirus D68 strain US/KY/14-18953 in RD cells. The class given is cell-based.
In another data set the test system is Coxsackievirus B1. Nature of the data set: microbe, parasite or virus in culture. The conditions noted are these: read-out: EC50 CVB1. It counts as cell-based.
The next data set has as its system Echovirus 25. The experiment in a line: microbe, parasite or virus in culture. It counts as cell-based. The conditions noted are these: read-out: EC50 ECHO25.
In a further data set the test system is Echovirus 11. The experiment in a line: microbe, parasite or virus in culture. It counts as cell-based. The conditions noted are these: read-out: EC50 ECHO11.
The subject of the next data set is Coxsackievirus A9. Nature of the data set: microbe, parasite or virus in culture. It counts as cell-based. The conditions noted are these: read-out: EC50 COX A9.
The test system of a further data set is Coxsackievirus B2. The experiment in a line: microbe, parasite or virus in culture. The conditions noted are these: read-out: EC50 CVB2. The class given is cell-based.
The next data set relates to Coxsackievirus B5. The experiment in a line: microbe, parasite or virus in culture. The class given is cell-based. The conditions noted are these: read-out: EC50 CVB5.
Another data set deals with Enterovirus 71. The experiment in a line: microbe, parasite or virus in culture. The class given is cell-based. To be noted: read-out: EC50 EV71.
A further data set relates to Poliovirus 1. The experiment in a line: microbe, parasite or virus in culture. To be noted: read-out: EC50 PV1. It counts as cell-based.
Another data set has as its system Poliovirus 3. The experiment in a line: microbe, parasite or virus in culture. It counts as cell-based. To be noted: read-out: EC50 PV3.
A further data set concerns Echovirus 30. The experiment in a line: microbe, parasite or virus in culture. The class given is cell-based. The conditions noted are these: read-out: EC50 ECHO30.
The test system of another data set is Punta Toro virus. Nature of the data set: microbe, parasite or virus in culture. The class given is cell-based. To be noted: read-out: EC50 Punta Toro virus.
The next data set has as its system Echovirus 9. The experiment in a line: microbe, parasite or virus in culture. It counts as cell-based. The conditions noted are these: read-out: EC50 ECHO09.
In the next data set the test system is Japanese Encephalitis. It counts as cell-based.
Another data set concerns SARS Coronavirus. The class given is cell-based.
The test system of another data set is Powassan. The class given is cell-based, Powassan virus.
Data set [3] relates to RSV (resp syncitial virus). The experiment in a line: microbe, parasite or virus in culture. The conditions noted are these: read-out: EC50 RSV. It counts as cell-based.
The subject of a further data set is Vero. To be noted: read-out: CC50 (Yellow Fever Virus test).
The next data set has as its system Influenza A H1N1. Nature of the data set: microbe, parasite or virus in culture. The class given is cell-based. The conditions noted are these: read-out: EC50 Influenza A H1N1.
For a further data set, the system named is BHK. To be noted: read-out: CC50 (Powassan test).
The next data set relates to Rift Valley virus. Nature of the data set: organism not typed. It counts as cell-based. To be noted: read-out: EC50 Rift Valley virus.
A further data set concerns Rabies. The class given is cell-based, rabies virus.
The subject of a further data set is BHK-21. To be noted: read-out: CC50 (Rabies test).
The next data set deals with Chikungunya. The class given is cell-based, chikungunya virus.
The subject of another data set is Venezuelan Encephalitis. It counts as cell-based, Venezuelan encephalitis virus.
The test system of another data set is Yellow Fever Virus. Nature of the data set: microbe, parasite or virus in culture. It counts as cell-based. The conditions noted are these: read-out: EC50 Yellow Fever Virus.
The subject of the next data set is Measles. Nature of the data set: microbe, parasite or virus in culture. It counts as cell-based. The conditions noted are these: read-out: EC50 Measles.
The subject of a further data set is Enterovirus D68/Fermon. The experiment in a line: Antiviral assay, Enterovirus D68 strain Fermon in RD cells. The class given is cell-based.

Where two headings read alike, the source gives them in different places.

A word on the EC50: it is the concentration needed to bring the measured effect to its halfway point. For `CC(C)n1ncc2c(C(=O)Nc3ccccn3)cc(-c3cccs3)nc21` [JX-040], the EC50 in data set [1] was determined as 170 ± 30 nM; in the data set on Coxsackievirus B3-H3 it was 600 nM; with Echovirus 6, 400 nM; in the data set with Coxsackievirus B4, 500 nM; in the data set with Echovirus 7, 600 nM; in data set [2], 270 ± 60 nM. In addition, the EC50 in the data set on Coxsackievirus B1 came out at 600 nM; with Echovirus 25, 600 nM; in the data set with Echovirus 11, 500 nM; with Coxsackievirus A9 it was 600 nM; in the data set on Coxsackievirus B2, 600 nM; in the data set with Coxsackievirus B5 it was 600 nM. Also, the EC50 in the data set on Enterovirus 71 was 500 ± 100 nM; in the data set on Poliovirus 1 it was greater than 10000 nM; with Poliovirus 3, greater than 10000 nM; with Echovirus 30, less than 400 nM. Besides, the CC50 in the data set with RD cells, in the data set with HeLa-RW cells and with LLC cells was greater than 200000 nM in each case.
Consider `CC(C)n1ncc2c(C(=O)Nc3ccc(F)cc3)cc(-c3ccsc3)nc21` [JX-030], for which the 50% effective concentration (EC50) was greater than 78000 nM in the data set on Punta Toro virus; 1900 nM with Echovirus 9; 3400 nM with Japanese Encephalitis; 300 nM in data set [1]; 1300 ± 100 nM in the data set with Coxsackievirus B3-H3; 1200 ± 100 nM with Echovirus 6. The EC50 with SARS Coronavirus was 4400 nM; in the data set on Powassan, greater than 85800 nM; in the data set on Coxsackievirus B4, 2200 ± 100 nM; in data set [3], 7000 nM; in the data set with Influenza A H1N1, 10700 nM; in the data set on Echovirus 7, 2600 ± 100 nM. For the same compound, the EC50 in data set [2] is 600 nM; in the data set with Coxsackievirus B1 it was 1600 ± 100 nM; in the data set on Echovirus 25, 900 nM; in the data set with Coxsackievirus A9 it was 1700 ± 100 nM; with Rift Valley virus it was 140000 nM; in the data set on Coxsackievirus B2, 1600 ± 100 nM. The EC50 with Rabies was 88400 nM; in the data set on Coxsackievirus B5, 1200 ± 100 nM; in the data set on Chikungunya, greater than 1300 nM; with Venezuelan Encephalitis, greater than 9400 nM; in the data set on Enterovirus 71, 1400 ± 200 nM; in the data set with Poliovirus 1, greater than 25000 nM. Also, the EC50 with Poliovirus 3 was greater than 25000 nM; in the data set with Yellow Fever Virus, greater than 11100 nM; in the data set with Measles, 20500 nM; with Echovirus 30, 600 nM. For the same compound, the CC50 was 25000 nM with RD cells; 11100 nM in the data set on Vero; 25000 nM in the data set with HeLa-RW cells; greater than 85800 nM with BHK; 17700 nM in the data set on MDCK; 169000 nM in the data set with Vero 76 (read-out: CC50 (Rift Valley virus test), with Rift Valley virus MP-12 test). Moreover, the CC50 in the data set with Vero 76 (read-out: CC50 (SARS Coronavirus test), with SARS Coronavirus Urbani test) is 18700 nM; in the data set with BHK-21, greater than 260000 nM; in the data set on LLC cells it was greater than 100000 nM; with MA-104, 67600 nM.
As to `CC(C)n1ncc2c(C(=O)Nc3cccnc3)cc(-c3cccs3)nc21` [JX-056], the EC50 is 200 nM in the data set with Echovirus 9; less than 100 nM in data set [1]; 600 nM in the data set with Coxsackievirus B3-H3; 600 nM with Coxsackievirus B4; 450 nM with Echovirus 7; 120 nM in [2]. Further, the EC50 with Coxsackievirus B1 was 600 nM; with Echovirus 11 it was 200 nM; with Coxsackievirus A9, 600 nM; with Enterovirus D68/Fermon, less than 100 nM; in the data set with Coxsackievirus B2, 600 nM; in the data set on Coxsackievirus B5, 600 nM. Further, the EC50 with Enterovirus 71 was 500 ± 100 nM; in the data set on Poliovirus 1 it was 10000 nM; in the data set with Poliovirus 3, 10000 nM; with Echovirus 30, 300 nM. Further, the CC50 with RD cells is 25000 nM; in the data set on HeLa-RW cells, 25000 nM; with LLC cells, greater than 200000 nM.
For the compound `CC(C)n1ncc2c(C(=O)Nc3cccc(S(=O)(=O)N(C)C)c3)cc(-c3cccs3)nc21` [JX-052], the EC50 in the data set on Echovirus 9 came out at 200 nM; in data set [1], 310 ± 70 nM; with Coxsackievirus B3-H3, 1200 nM; in the data set on Coxsackievirus B4 it was 1200 nM; in the data set on Echovirus 7 it was 780 nM; in [2], 530 ± 290 nM. Besides, the EC50 in the data set on Coxsackievirus B1 is 1200 nM; in the data set with Echovirus 11 it was 600 nM; in the data set on Coxsackievirus A9 it was 800 nM; in the data set with Enterovirus D68/Fermon, 570 ± 250 nM; in the data set with Coxsackievirus B2, 1200 nM; with Coxsackievirus B5, 1200 nM. The EC50 with Enterovirus 71 is 800 ± 100 nM; in the data set with Poliovirus 1, greater than 10000 nM; in the data set with Poliovirus 3, greater than 10000 nM; in the data set with Echovirus 30, 400 nM. Further, the CC50 with RD cells is greater than 200000 nM; with HeLa-RW cells, 12000 nM; in the data set on LLC cells it was greater than 200000 nM.
Take `CC(C)n1ncc2c(C(=O)Nc3ncccn3)cc(-c3cccs3)nc21` [JX-041]: the EC50 was found to be 600 nM in the data set with Coxsackievirus B3-H3; 400 nM in the data set on Echovirus 6; 600 nM with Coxsackievirus B4; 700 nM in the data set with Echovirus 7; 600 nM with Coxsackievirus B1; 600 nM with Echovirus 25. Further, the EC50 is 600 nM in the data set on Echovirus 11; 600 nM in the data set on Coxsackievirus A9; 600 nM in the data set with Coxsackievirus B2; 600 nM in the data set with Coxsackievirus B5; 500 ± 100 nM in the data set on Enterovirus 71; greater than 10000 nM with Poliovirus 1. The EC50 was greater than 10000 nM in the data set with Poliovirus 3 and less than 400 nM with Echovirus 30. For the same compound, the CC50 was 37500 nM in the data set on HeLa-RW cells and 75000 nM with LLC cells.
Consider `CC(C)n1ncc2c(C(=S)Nc3ccc(F)cc3)cc(-c3cccs3)nc21` [JX-046], for which the EC50 with Echovirus 9, in the data set on Echovirus 6, in the data set on Echovirus 7, in the data set with Echovirus 25, in the data set with Echovirus 11 and with Coxsackievirus A9 was greater than 10000 nM each time. The figures for the EC50 in the data set with Enterovirus 71 and in the data set on Echovirus 30 were greater than 10000 nM and 6250 nM, respectively. Besides, in the data set on LLC cells, the CC50 came to 20000 nM.
Turning to `CC(C)n1ncc2c(C(=O)N(C)c3ccccn3)cc(-c3cccs3)nc21` [JX-074], the EC50 with Echovirus 9, in the data set with Coxsackievirus B3-H3, with Echovirus 6, with Coxsackievirus B4, in the data set on Echovirus 7 and in the data set on Coxsackievirus B1 was greater than 10000 nM throughout. Further, the EC50 in the data set with Echovirus 25, in the data set on Echovirus 11, in the data set with Coxsackievirus A9, with Coxsackievirus B2, in the data set on Coxsackievirus B5 and in the data set with Enterovirus 71 was greater than 10000 nM each time. The EC50 with Poliovirus 1, with Poliovirus 3 and with Echovirus 30 was greater than 10000 nM throughout.
As to `CNS(=O)(=O)c1cccc(NC(=O)c2cc(-c3cccs3)nc3c2cnn3C(C)C)c1` [JX-053], the EC50 in the data set with Echovirus 9 was determined as 200 nM; with Coxsackievirus B3-H3, 600 nM; with Coxsackievirus B4 it was 600 nM; with Echovirus 7, 450 nM; with Coxsackievirus B1 it was 600 nM; in the data set on Echovirus 11, 600 nM. Moreover, the EC50 in the data set with Coxsackievirus A9 is 800 nM; in the data set with Coxsackievirus B2, 600 nM; in the data set with Coxsackievirus B5, 600 nM; with Enterovirus 71, 700 ± 100 nM; in the data set with Poliovirus 1, greater than 10000 nM; in the data set on Poliovirus 3 it was greater than 10000 nM. The EC50 in the data set on Echovirus 30 is 600 nM. The CC50 in the data set with HeLa-RW cells stood at 12000 nM; in the data set with LLC cells, 25000 nM.
